Test results from US10980853B2, “Process for preparing a crassocephalum crepidioides extract, extract prepared thereby and use of the extract” (DEVELOPMENT CENTER FOR BIOTECHNOLOGY, priority 2015, dated 2021).
Values after ≈ are worked out from the molar mass of the structure shown.

Tests used:
[1] = test system: MKN45 cells; experiment: Inhibition of the growth of MKN45 cancer cells (MTS assay); assay type: cell-based
Procedure: (§1) MKN45 cells were incubated in RPMI-1640 medium (Sigma-Aldrich) containing 5% FBS (Gibco®). 6×10^3 cells were added to each well of a 96-well plate. Each well contained 180 μL of the above medium. The plate was incubated at 37° C. for 4 hours, and then 20 μL of various concentrations of each of the raw extract, Cr-E03 and dLGG were added to each well of the plate. Each concentration was tested with 3 replicates. After further incubation at 37° C. for 48 hours, the medium in the wells was removed, and 180 μL of 5% FBS medium containing 3-(4,5-dimethylthiazol-2-yl)-5-(3-carboxymethoxyphenyl)-2-(4-sulfophenyl)-2H-tetrazolium (MTS) were added to the wells. After reaction at 37° C. for 1 hour, the absorption values at 490 nm of the wells were measured by ELISA Reader (Model 680 Microplate Reader, Bio-Rad). IC25, IC50 and IC75 values of the raw extract, Cr-E03 and dLGG, respectively, were obtained by calculation using GraphPad Prism 5 software (GraphPad Software, Inc). IC25, IC50 and IC75 values are defined as the concentrations of the test sample which achieve 25%, 50% and 75%, respectively, of the maximal inhibition of the growth of MKN45 cells.

[2] = test system: MKN45 cells; experiment: Combination with 5-FU or epirubicin in the inhibition of the growth of MKN45 cancer cells (combination index); assay type: cell-based; conditions: CI<1 synergism, CI=1 addition, CI>1 antagonism
Procedure: as §1
Combinations of different concentrations of each of the raw extract, Cr-E03 and dLGG with different concentrations of each of 5-fluorouracil (5-FU) and epirubicin were prepared. […]

IC50 ([1]; Homo sapiens, MKN-45, 48 hours, concentration achieving 50% of maximal growth inhibition): 47.3 µg/mL (≈ 61 µM)
SMILES: CC/C=C\C/C=C\C/C=C\CCCCCCCC(=O)OC[C@H](CO[C@@H]1O[C@H](CO)[C@H](O)[C@H](O)[C@H]1O)OC(=O)CCCCCCC/C=C\C/C=C\C/C=C\CC [dLGG, 1,2-di-O-α-linolenoyl-3-O-β-galactopyranosyl-sn-glycerol]
IC25 ([1]; 48 hours, concentration achieving 25% of maximal growth inhibition): 35.86 µg/mL (≈ 46.3 µM)
IC75 ([1]; 48 hours, concentration achieving 75% of maximal growth inhibition): 61.96 µg/mL (≈ 79.9 µM)
CI (combination index) ([2]; combination with 5FU): 1.58
CI (combination index) ([2]; combination with Epi (epirubicin)): 1.58
